US7144862B2, “Orally administered peptides to ameliorate atherosclerosis” (The Regents of the University of California, priority 2000, dated 2006)
In brackets after ≈: the same amount, converted by molar mass. Several values for one entry are separate records, joined by “and”; a condition that tells them apart may be missing. Identical values can stand only once. Entries after “also recorded” stand apart in the source; their conditions may differ. Like-named read-outs stand apart in the source and are kept apart here. Values belong to the molecule of their own block, whether it stands above or below them. Non-standard residues stand in square brackets, D forms with d. Residues, ends and D or L forms follow the SMILES beside them.

Columns and labels:
[1] = Solubility in PBS; type: physicochemical
Experimental: The peptides were purified on a preparative Vydac C4 column by reversed-phase (RP)-HPLC using water (with 0.1% trifluoroacetic acid) and acetonitrile (0.1% trifluoroacetic acid). The purity and the retention times of the peptides were determined on an analytical Vydac C18 column using a gradient of 25%-58% acetonitrile in water containing 0.1% TFA. The purity of these peptides was also confirmed by mass spectrometry. The mass was in agreement with the calculated molecular weight. Although both the 3F peptides and 4F have additional Phe residues compared to 2F, the retention times of these peptides on the C18 column are not very different (˜22 min). A sudden increase in the retention time is apparent with 5F, 6F and 7F (˜26 min). With increasing number of Phe residues, the solubility of these peptides in PBS decreases.

[2] = Surface pressure measurements: monolayer exclusion pressure; type: physicochemical; conditions: EPC monolayer; reproducibility ± 1 dyn/cm
Experimental: An insoluble monolayer of egg phosphatidylcholine (EPC) was spread at the air-water interface in a Teflon dish at room temperature to give an initial surface pressure (πi) in the range of 5–45 dyn/cm. A solution of peptides in PBS containing 1.5M Gdn. HCl was carefully injected in to the subphase to give a final concentration of 50 μg/dL. The Gdn. HCl was diluted in the subphase to a final concentration of ≦1 mM to allow the peptides to renature. The subphase was stirred continuously and the increase in EPC monolayer surface pressure (Δπ) was recorded until a steady state value was obtained. The value of the initial surface pressure (πi) at which the peptides no longer penetrate the EYPC monolayer i.e. the exclusion pressure (πe), was calculated by extrapolating the πi vs Δπ linear regression fit to Δπ=0 dyn/cm.

[3] = Circular dichroism, percent helicity; type: physicochemical; conditions: for Percent Helicity PBS: 11 μM peptide in PBS; for Percent Helicity DMPC: 11 μM peptide, Peptide: DMPC 1:20 (mol/mol)
Experimental: Briefly, spectra were obtained using a cell with a 0.1 cm path length and measurements were taken every nm from 260 nm to 190 nm at 25° C. All the CD spectra were signal averaged by adding four scans, base line corrected and smoothed. Peptide solutions in PBS, pH 7.4, were used at a concentration of 11 μM. Peptide-DMPC complexes (1:20 mol:mol) were used to determine the effect of lipid binding on the helicity of these peptides. These complexes were prepared by adding the appropriate volume of peptide solution to DMPC multilamellar vesicles. DMPC multilamellar vesicles were prepared as follows: A known amount of lipid was dissolved in ethanol and the solvent was removed by evaporating slowly under a thin stream of nitrogen. Residual solvent was removed by storing the lipid film under vacuum overnight. An appropriate volume of PBS, pH 7.4 was added to the thin lipid film to give the required final concentration of DMPC.

[4] = DSC, chain melting transition of DMPC; type: physicochemical; conditions: DMPC/peptide 100:1 (mol/mol); for TCM(° C.): 1.5 mM DMPC, chain melting transition temperature; for ΔHCM (kcals/mol): enthalpy of the transition; for ΔT1/2 (° C.): width at half maximum of the transition
Experimental: (§1) A known amount of phospholipid was dissolved in chloroform. For one set of samples, peptide was dissolved in methanol and added to a solution of DiPoPE in chloroforn/methanol (2:1, v:v). For both, pure lipid samples and the organic solutions of lipid and peptide, solvent was removed under a slow stream of nitrogen. Residual solvent was removed under vacuum. […] For DMPC, four consecutive scans with a 60 minute equilibration time between scans were taken. DSC thermograms were analyzed using the software provided by MicroCal Inc., Amherst, Mass., and Origin, version 5.0.
The effect of these 18A analogues on the chain melting transition of multilamellar vesicles of DMPC was studied by DSC using peptide-lipid mixtures at 100:1 lipid/peptide molar ratio.

[5] = DSC, bilayer to hexagonal phase transition of DiPoPE; type: physicochemical; conditions: heating scan rate 37°/h
Experimental: as §1
In the current study we prepared the peptide-lipid mixtures in two ways. One was by adding the peptide in organic solvent to the lipid in organic solvent followed by depositing the material as a film and subsequently hydrating with buffer. In the other method, the peptide and lipid were mixed after each was hydrated separately. If the mixture comes to equilibrium prior to the DSC analysis, it should not matter how the peptide and lipid are originally mixed. However, membrane systems can equilibrate slowly, in which case there may be more peptide in the lipid when it was incorporated at high concentrations into the lipid film.

[6] = Right angle light scattering, dissolution of EPC MLVs; type: physicochemical; conditions: 105 μM EPC, equimolar peptide; for clarification of EPC MLVs: 25° C., 30 min
Experimental: EPC MLVs were prepared by evaporating a solution of EPC (Avanti Polar, AL) under nitrogen and hydrating the lipid film with phosphate-buffered saline (pH 7.4). […] Turbidity clarification was monitored for 30 min.

[7] = system: human artery wall cell cocultures; test: LDL-induced monocyte chemotactic activity with the homologous series of peptides (Example 3); type: cell-based; conditions: peptide at 100 μg/ml, LDL 250 μg protein/ml, 8 h
Experimental: Microtitre plates were treated with 0.1% gelatin at 37° C. overnight. HASMC were added at a confluent density of 1×10^5 cells/cm^2. […] HAEC were subsequently added at 2×10^5 cells/cm^2 and were allowed to grow, forming a complete monolayer of confluent HAEC in two days. In all experiments, HAEC and autologous HASMC (from the same donor) were used at passage levels of four to six. […] The cocultures were treated with native LDL(250 μg protein/ml) or presence of HDL (350 μg protein/ml) or peptides for 8 h.

[8] = system: human artery wall cell cocultures; test: Lipoproteins from mice given peptide by gavage tested in human artery wall cell cocultures (monocyte chemotactic activity)
[9] = system: Human aortic wall cocultures; test: LDL plus peptide in vitro in human aortic wall cocultures, monocyte chemotactic activity (Example 2); type: cell-based; conditions: control LDL 250 μg/ml plus varying amounts of peptide
Experimental: Human aortic wall cocultures were incubated with medium alone (LDL, NO CELLS or CELLS, NO LDL, see FIG. 9), control LDL from normal subjects at 250 μg/ml (LDL) and LDL plus control HDL from normal subjects at 350 μg/ml (+HDL). Other cocultures were incubated With the control LDL together with varying amounts (micrograms shown on the abscissa) of either D-2F, or L-2F (third panel from the left, 2F) or D-37-pA or L-37pA (last panel on the right, 37pA). The data represent mean±SD of values obtained from quadruplicate cocultures.

[10] = mouse, in vivo
[11] = 5F, 100 μg per animal by oral gavage, LDL receptor null mice, blood after 6 hrs

Solubility [1]: 1300 µg/mL (≈ 563 µM)
solubility ([1]; Solubility (mg/ml)): 1250 to 1400 µg/mL (≈ 541 to 606 µM)
Monolayer Exclusion Pressure(πc) [2]: 40 dyn/cm
Percent Helicity PBS [3]: 45%
Percent Helicity DMPC [3]: 44%
TCM(° C.) [4]: 23.2 °C
ΔHCM (kcals/mol) [4]: 5.3 kcals/mol
ΔT1/2 (° C.) [4]: 0.4 °C
Molecule: CC(=O)N[C@@H](CC(=O)O)C(=O)N[C@@H](Cc1c[nH]c2ccccc12)C(=O)N[C@@H](Cc1ccccc1)C(=O)N[C@@H](CCCCN)C(=O)N[C@@H](C)C(=O)N[C@@H](Cc1ccccc1)C(=O)N[C@@H](Cc1ccc(O)cc1)C(=O)N[C@@H](CC(=O)O)C(=O)N[C@@H](CCCCN)C(=O)N[C@H](C(=O)N[C@@H](C)C(=O)N[C@@H](CCC(=O)O)C(=O)N[C@@H](CCCCN)C(=O)N[C@@H](Cc1ccccc1)C(=O)N[C@@H](CCCCN)C(=O)N[C@@H](CCC(=O)O)C(=O)N[C@@H](C)C(=O)N[C@@H](Cc1ccccc1)C(N)=O)C(C)C [Peptide 4F, Ac-D-W-F-K-A-F-Y-D-K-V-A-E-K-F-K-E-A-F-NH2]
shift in TH of DiPoPE with mol fraction of peptide [5]: more rapid increase is observed at lower peptide concentrations
time for 50% clearance of the turbidity of EPC MLVs [6]: shortest
clarification of EPC MLVs [6]: most effective in clarifying EPC MLVs with activity similar to that of Triton X-100
inhibition of LDL-induced monocyte chemotaxis [7]: significant and similar inhibition

Molecule: CC(=O)N[C@H](CC(=O)O)C(=O)N[C@H](Cc1c[nH]c2ccccc12)C(=O)N[C@H](CC(C)C)C(=O)N[C@H](CCCCN)C(=O)N[C@H](C)C(=O)N[C@H](Cc1ccccc1)C(=O)N[C@H](Cc1ccc(O)cc1)C(=O)N[C@H](CC(=O)O)C(=O)N[C@H](CCCCN)C(=O)N[C@@H](C(=O)N[C@H](Cc1ccccc1)C(=O)N[C@H](CCC(=O)O)C(=O)N[C@H](CCCCN)C(=O)N[C@H](Cc1ccccc1)C(=O)N[C@H](CCCCN)C(=O)N[C@H](CCC(=O)O)C(=O)N[C@H](Cc1ccccc1)C(=O)N[C@H](Cc1ccccc1)C(N)=O)C(C)C [Peptide D-5F, Ac-D-W-L-K-A-F-Y-D-K-V-F-E-K-F-K-E-F-F-NH2] (Ac-[dD][dW][dL][dK][dA][dF][dY][dD][dK][dV][dF][dE][dK][dF][dK][dE][dF][dF]-NH2)
HDL protective capacity [8, 11]: markedly more protective
LDL resistance to oxidation [8, 11]: highly resistant to oxidation
monocyte chemotactic activity induced by mouse VLDL/IDL fraction ([8]; 50 micrograms by gavage, 3 hour time point): significantly less monocyte chemotactic activity
protection of control LDL by mouse HDL ([8]; 50 micrograms by gavage, HDL taken after 6 hours): slightly less
monocyte chemotactic activity induced by mouse LDL ([8]; 50 micrograms by gavage, after 3 h and 6 h): significantly less monocyte chemotactic activity

Monolayer Exclusion Pressure(πc) [2]: 45 dyn/cm
Percent Helicity PBS [3]: 58%
Percent Helicity DMPC [3]: 68%
TCM(° C.) [4]: 23.2 °C
ΔHCM (kcals/mol) [4]: 4.5 kcals/mol
ΔT1/2 (° C.) [4]: 0.5 °C
shift in TH of DiPoPE with mol fraction of peptide [5]: do not significantly affect TH
Molecule: Ac-DWFKAFYDKFFEKFKEFF-NH2 [Peptide 7F, Ac-D-W-F-K-A-F-Y-D-K-F-F-E-K-F-K-E-F-F-NH2]
initial lag period in EPC MLV clearance [6]: ~300 s
time for 50% clearance of the turbidity of EPC MLVs [6]: longest time
clarification of EPC MLVs [6]: clarified the EPC MLVs to a similar extents
inhibition of LDL-induced monocyte chemotaxis [7]: significantly less effective than peptides 4F, 5F and 6F

Molecule: Ac-DWFKAFYDKVAEKLKEAF-NH2 [3F^3]
solubility ([1]; in PBS, read-out: Solubility): 1250 to 1400 µg/mL

Solubility [1]: 30 µg/mL
solubility ([1]; Solubility (mg/ml)): 30 to 100 µg/mL
Monolayer Exclusion Pressure(πc) [2]: 45 dyn/cm and 46 dyn/cm
Percent Helicity PBS [3]: 67%
Percent Helicity DMPC [3]: 50%
TCM(° C.) [4]: 23.1 °C
ΔHCM (kcals/mol) [4]: 4.0 kcals/mol
ΔT1/2 (° C.) [4]: 0.5 °C
shift in TH of DiPoPE with mol fraction of peptide [5]: do not significantly affect TH
Molecule: Ac-DWLKAFYDKFFEKFKEFF-NH2 [Peptide 6F, Ac-D-W-L-K-A-F-Y-D-K-F-F-E-K-F-K-E-F-F-NH2]
clarification of EPC MLVs [6]: clarified the EPC MLVs to a similar extents
inhibition of LDL-induced monocyte chemotaxis [7]: significant and similar inhibition

Molecule: Ac-DWLKAFYDKVAEKLKEAF-NH2 [Peptide L-2F, Ac-D-W-L-K-A-F-Y-D-K-V-A-E-K-L-K-E-A-F-NH2]
monocyte chemotactic activity induced by LDL treated with peptide in vitro [9]: significantly different from LDL; also recorded: equally able to block LDL oxidation and LDL-induced monocyte chemotactic activity
monocyte chemotaxis induced by LDL from mice given 2F by gavage ([8]; D versus L form by gavage): readily induced monocyte chemotaxis

Molecule: Ac-DWLKAFYDKVFEKFKEFF-NH2 [Peptide L-5F, Ac-D-W-L-K-A-F-Y-D-K-V-F-E-K-F-K-E-F-F-NH2]
HDL protective capacity [8, 11]: but not L-5F rendered the HDL markedly more protective

Molecule: H-DWLKAFYDKVAEKLKEAF-OH [Peptide 18A, D-W-L-K-A-F-Y-D-K-V-A-E-K-L-K-E-A-F, reference compound]
solubility ([1]; in PBS, read-out: Solubility): > 2000 µg/mL
Monolayer Exclusion Pressure(πc) [2]: 30 dyn/cm

Molecule: H-DWLKAFYDKVAEKLKEAFPDWLKAFYDKVAEKLKEAF-OH [Peptide 37pA, DWLKAFYDKVAEKLKEAFPDWLKAFYDKVAEKLKEAF, reference compound]
solubility ([1]; in PBS, read-out: Solubility): > 2000 µg/mL
Monolayer Exclusion Pressure(πc) [2]: 40 dyn/cm and 41 dyn/cm

Molecule: H-DWLKAFYDKVAEKLKEAFPDWLKAFYDKVAEKLKEAF-OH [Peptide L-37pA, reference compound]
monocyte chemotactic activity induced by LDL treated with peptide in vitro [9]: significantly different from LDL

Molecule: Human apo A-I: Human apo A-I is a 243 residue protein, major protein constituent of HDL
Solubility [1]: >2000 µg/mL
Monolayer Exclusion Pressure(πc) [2]: 34 dyn/cm
clarification of EPC MLVs [6]: does not clarify EPC MLVs
Max. % in plasma [10]: 23.7%
Time (h) to max. CPM ([10]; ip): 3.61 h
T½ ([10]; ip): 15.6 h
